In US20230331690A1, “THC DERIVATIVES, ORAL DOSAGE FORMS COMPRISING SAME, USES THEREOF FOR TREATING DISEASES AND DISORDERS AND SYNTHESIS THEREOF” (BAR-ILAN UNIVERSITY, priority 2020, published 2023):
Values joined by “and” are separate entries in the source; they are usually repeats but may differ in a detail not shown here. Identical values can stand only once. Like-named read-outs stand apart in the source and are kept apart here.

Columns and labels:
mice = assay: Hot plate assay, withdrawal reflex latency (WRL); type: in vivo; conditions: for Hot plate Time: per animal
[1] = Pharmacokinetics, blood samples (Example 17); conditions: mouse, blood, ip, Component in the blood, label = analyte
[2] = Pharmacokinetics, liver samples (Example 17); type: in vivo, mice; conditions: mouse, liver; for concentration at 24 h: ip; for concentration at 5 h: po
Protocol: The pharmacokinetics of 9-CD3-(8-D2)-THC compared to natural THC was evaluated using both intraperitoneal i.p. injection and an oral gavage administration for each material. The mice were divided into four groups containing 6 mice (24 mice total). For each group of mice, a blood sample was withdrawn at baseline (t=0), and half-hour intervals (t=0.5, 2 and 5 h) after administration of the drug. Three mice, half of each group, were euthanized with CO2 after 5 h and their organs (brain and liver) were collected. From the second half of each group, another blood sample was withdrawn 24 h after administration, and then these animals were euthanized and the brain and liver were collected for analysis.

[3] = Persistence over time, blood samples (Example 18); type: in vivo, mice; conditions: label = analyte; for Average results, blood samples: 4 mg/kg administration
[4] = Persistence over time, brain samples postmortem (Example 18); type: in vivo, mice
[5] = Persistence over time, liver samples postmortem (Example 18); type: in vivo, mice; conditions: for concentration at 6 h / concentration at 24 h: mouse, liver, oral, read-out: Average results for 3 mice (Table 13, liver); for concentration at 6 h: died at 6 h
[6] = Body temperature by rectal thermometer (hypothermia)

Question: Which “Hot plate Avg. 6 mice” value (mice; 2 mg/Kg oral, t = 0.5 h) does the source give for `CCCCCc1cc(O)c2c(c1)OC(C)(C)[C@@H]1CCC(C)=C[C@@H]21` [THC, Δ-9-tetrahydrocannabinol] here?
Answer: 7.38 s

Question: And the “Hot plate Time” value (mice; 2 mg/Kg oral, t = 0.5 h)?
Answer: 5.7 s and 11.5 s and 8.9 s and 9.2 s and 3.2 s and 5.8 s

Question: What about the “Hot plate Avg. 6 mice” value (mice; 2 mg/Kg oral, t = 3 h) of the same molecule?
Answer: 9.77 s

Question: What about the “Hot plate Time” value (mice; 2 mg/Kg oral, t = 3 h) of the same molecule?
Answer: 9.5 s and 8.5 s and 18.0 s and 10.4 s and 5.3 s and 6.9 s

Question: What about the “Hot plate Avg. 6 mice” value (mice; 2 mg/Kg oral, t = 6 h) of the same molecule?
Answer: 9.77 s

Question: What about the “Hot plate Time” value (mice; 2 mg/Kg oral, t = 6 h) of the same molecule?
Answer: 13.5 s and 6.3 s and 12.5 s and 8.7 s and 6.6 s and 11.0 s

Question: And the “Hot plate Avg. 3 mice” value (mice; 2 mg/Kg oral, t = 24 h)?
Answer: 6.53 s

Question: And the “Hot plate Time” value (mice; 2 mg/Kg oral, t = 24 h)?
Answer: 7.8 s and 7.4 s and 4.4 s

Question: What about the “decrease in the WRL compared to baseline” value (mice; 2 mg/kg, 0.5 h) of the same molecule?
Answer: 1%

Question: And the “change in average WRL compared to baseline” value (“change … to baseline” below) (mice; 2 mg/kg, 3 h)?
Answer: +31%

Question: What about the “change … to baseline” value (mice; 2 mg/kg, 6 h) of the same molecule?
Answer: +31%

Question: What about the “Hot plate Avg. 6 mice” value (mice; 4 mg/Kg oral, t = 0.5 h) of the same molecule?
Answer: 12.48 s

Question: What about the “Hot plate Time” value (mice; 4 mg/Kg oral, t = 0.5 h) of the same molecule?
Answer: 11.3 sec. (2×) and 19.8 sec. and 6.3 sec. and 14.0 sec. and 12.2 sec.

Question: And the “Hot plate Avg. 6 mice” value (mice; 4 mg/Kg oral, t = 3 h)?
Answer: 11.00 s

Question: What about the “Hot plate Time” value (mice; 4 mg/Kg oral, t = 3 h) of the same molecule?
Answer: 17.3 s and 8.0 s and 9.3 s and 6.9 s and 13.9 s and 10.6 s

Question: What about the “Hot plate Avg. 6 mice” value (mice; 4 mg/Kg oral, t = 6 h) of the same molecule?
Answer: 8.92 s

Question: What about the “Hot plate Time” value (mice; 4 mg/Kg oral, t = 6 h) of the same molecule?
Answer: 12.1 sec. and 2.4 sec. and 3.0 sec. and 14.0 sec. (2×) and 8.0 sec.

Question: What about the “Hot plate Avg. 3 mice” value (mice; 4 mg/Kg oral, t = 24 h) of the same molecule?
Answer: 10.43 s

Question: And the “Hot plate Time” value (mice; 4 mg/Kg oral, t = 24 h)?
Answer: 13.7 s and 12.8 s and 4.8 s

Question: And the “increase in the WRL compared to baseline” value (mice; 4 mg/kg, 0.5 h)?
Answer: 23%

Question: What about the “change … to baseline” value (mice; 4 mg/kg, 3 h) of the same molecule?
Answer: +8%

Question: And the “change … to baseline” value (mice; 4 mg/kg, 6 h)?
Answer: −12%

Question: What about the “Hot plate Avg. 6 mice” value (mice; 8 mg/Kg oral, t = 0.5 h) of the same molecule?
Answer: 13.22 s

Question: What about the “Hot plate Time” value (mice; 8 mg/Kg oral, t = 0.5 h, cut-off 30 s) of the same molecule?
Answer: 15.2 s and 11.1 s and 14.2 s and 6.7 s and 19.6 s and 12.5 s

Question: What about the “Hot plate Avg. 6 mice” value (mice; 8 mg/Kg oral, t = 3 h) of the same molecule?
Answer: 12.45 s

Question: What about the “Hot plate Time” value (mice; 8 mg/Kg oral, t = 3 h, cut-off 30 s) of the same molecule?
Answer: 21.6 s and 9.0 s and 9.8 s and 9.5 s and 12.5 s and 12.3 s

Question: What about the “Hot plate Avg. 6 mice” value (mice; 8 mg/Kg oral, t = 6 h) of the same molecule?
Answer: 12.03 s

Question: And the “Hot plate Time” value (mice; 8 mg/Kg oral, t = 6 h)?
Answer: 13.2 s and 9.2 s and 6.8 s and 16.7 s and 17.0 s and 9.3 s

Question: And the “Hot plate Avg. 3 mice” value (mice; 8 mg/Kg oral, t = 24 h)?
Answer: 10.27 s

Question: What about the “Hot plate Time” value (mice; 8 mg/Kg oral, t = 24 h, cut-off 30 s) of the same molecule?
Answer: 8.1 s and 15.7 s and 7.0 s

Question: And the “average increase in WRL compared to baseline (t=0)” value (mice; 8 mg/kg, 0.5 h)?
Answer: 67.3%

Question: What about the “change in average WRL compared to t=0 at baseline” value (mice; 8 mg/kg, 3 h) of the same molecule?
Answer: +57.5%

Question: And the “change … to baseline” value (mice; 8 mg/kg, 6 h)?
Answer: +52%

Question: And the concentration at 0.5 h ([1]; Average, 0.5 h after i.p. injection of THC or THC-d5, n=6 (THC-d5 n=5))?
Answer: 63.4 ng/mL

Question: What about the concentration at 0.5 h ([1]; mouse 1, 0.5 h after i.p. injection of THC or THC-d5) of the same molecule?
Answer: 76.8 ng/mL

Question: And the concentration at 0.5 h ([1]; mouse 2, 0.5 h after i.p. injection of THC or THC-d5)?
Answer: 81.9 ng/mL

Question: And the concentration at 0.5 h ([1]; mouse 3, 0.5 h after i.p. injection of THC or THC-d5)?
Answer: 49.5 ng/mL

Question: And the concentration at 0.5 h ([1]; mouse 4, 0.5 h after i.p. injection of THC or THC-d5)?
Answer: 64.4 ng/mL

Question: And the concentration at 0.5 h ([1]; mouse 5, 0.5 h after i.p. injection of THC or THC-d5)?
Answer: 53.8 ng/mL

Question: What about the concentration at 0.5 h ([1]; mouse 6, 0.5 h after i.p. injection of THC or THC-d5) of the same molecule?
Answer: 53.9 ng/mL

Question: And the concentration at 24 h ([2]; 24 h after i.p. administration, n=3, read-out: average liver concentration)?
Answer: 7.62 ng/g

Question: What about the concentration at 24 h ([2]; 24 h after i.p. injection of THC or THC-d5, label = analyte, n=3, read-out: Component in the liver, Average) of the same molecule?
Answer: 7.62 ng/mL

Question: What about the concentration at 24 h ([2]; 24 h after i.p. injection of THC or THC-d5, label = analyte, read-out: Component in the liver, mouse 1) of the same molecule?
Answer: 5.55 ng/mL

Question: And the concentration at 24 h ([2]; 24 h after i.p. injection of THC or THC-d5, label = analyte, read-out: Component in the liver, mouse 2)?
Answer: 8.46 ng/mL

Question: And the concentration at 24 h ([2]; 24 h after i.p. injection of THC or THC-d5, label = analyte, read-out: Component in the liver, mouse 3)?
Answer: 8.86 ng/mL

Question: What about the concentration at 5 h ([2]; 5 h after oral gavage administration of THC or THC-d5, label = analyte, n=3, read-out: Component in the liver, Average) of the same molecule?
Answer: 3.77 ng/mL

Question: What about the concentration at 5 h ([2]; 5 h after oral gavage administration of THC or THC-d5, label = analyte, read-out: Component in the liver, mouse 1) of the same molecule?
Answer: 1.41 ng/mL

Question: And the concentration at 5 h ([2]; 5 h after oral gavage administration of THC or THC-d5, label = analyte, read-out: Component in the liver, mouse 2)?
Answer: 4.94 ng/mL

Question: What about the concentration at 5 h ([2]; 5 h after oral gavage administration of THC or THC-d5, label = analyte, read-out: Component in the liver, mouse 3) of the same molecule?
Answer: 4.97 ng/mL

Question: What about the concentration at 5 h ([2]; 5 h after oral gavage administration, n=3, read-out: average liver concentration) of the same molecule?
Answer: 3.77 ng/g

Question: What about the “Average results, blood samples” value ([3]; Time 3 h) of the same molecule?
Answer: 2.78 (4/6) ng/mL

Question: And the “Average results, blood samples” value ([3]; Time 6 h)?
Answer: 2.44 (5/5) ng/mL

Question: And the “Average results, blood samples” value ([3]; Time 24 h (3 mice))?
Answer: 0.25 (2/2) ng/mL

Question: And the concentration at 0.5 h ([3]; mouse, blood, oral, 4 mg/kg administration of THC or THC-d5, Time 0.5 h)?
Answer: 10.5 ng/mL

Question: And the concentration at 0.5 h ([3]; mouse, blood, oral, 8 mg/kg administration of THC or THC-d5, Time 0.5 h)?
Answer: 14.3 ng/mL

Question: And the concentration at 3 h ([3]; mouse, blood, oral, 8 mg/kg administration, Time 3 h)?
Answer: 6.53 ng/mL

Question: What about the concentration at 6 h ([3]; mouse, blood, oral, 8 mg/kg administration, Time 6 h) of the same molecule?
Answer: 4.14 ng/mL

Question: What about the concentration at 12 h ([3]; mouse, blood, oral, 8 mg/kg administration, Time 12 h (3 mice)) of the same molecule?
Answer: 0.81 ng/mL

Question: What about the concentration at 24 h ([3]; mouse, blood, oral, 8 mg/kg administration, Time 24 h (3 mice)) of the same molecule?
Answer: 0.26 ng/mL

Question: And the “presence in the brain” value ([4]; 24 h after administration, highest concentration of 8 mg/kg)?
Answer: absent

Question: What about the concentration at 24 h ([4]; mouse, brain, oral, 4 mg/kg administered, died at 24 h, number in brackets = mice with a value, read-out: Average results for 3 mice - brain samples) of the same molecule?
Answer: 14.1 ng/g

Question: And the concentration at 6 h ([4]; mouse, brain, oral, 8 mg/kg administered, died at 6 h, number in brackets = mice with a value, read-out: Average results for 3 mice - brain samples)?
Answer: 16.9 ng/g

Question: What about the “Average results for 3 mice (Table 13, liver)” value ([5]; 2 mg/kg administered, died at 24 h, number in brackets = mice with a value) of the same molecule?
Answer: 0.74 (2/3) ng/g

Question: What about the concentration at 6 h ([5]; 2 mg/kg administered) of the same molecule?
Answer: 9.18 ng/g

Question: And the concentration at 6 h ([5]; 4 mg/kg administered)?
Answer: 11.4 ng/g

Question: And the concentration at 24 h ([5]; 4 mg/kg administered, died at 24 h, number in brackets = mice with a value)?
Answer: 0.87 ng/g

Question: And the concentration at 6 h ([5]; 8 mg/kg administered)?
Answer: 11.1 ng/g

Question: What about the concentration at 24 h ([5]; 8 mg/kg administered, died at 24 h, number in brackets = mice with a value) of the same molecule?
Answer: 3.52 ng/g

Question: And the “time of strongest effect on body temperature after drug administration” value ([6]; high concentration of 8 mg/kg oral)?
Answer: 0.5 h

Question: What about the “hypothermia effect (body temperature)” value ([6]; medium concentration of 4 mg/kg oral) of the same molecule?
Answer: very clear hypothermia effect

Question: What about the “Body temperature, Avg. change compared to t = 0, at t = 0.5 h” value ([6]; mice, avg. of 6 mice, 8 mg/kg (groups C+D), t = 0.5 h after administration) of the same molecule?
Answer: −2.1 °C
